Reference: US7144706B2, “Methods of modulating localization and physiological function of IP3 receptors” (Duke University, priority 2002, dated 2006)
Entries after “also recorded” stand apart in the source; their conditions may differ. Where no end group is shown, it is not given here.

Tests used:
[1] = system: wildtype and ankyrin-B (+/−) mice; experiment: Heart rate by ECG radiotelemetry in conscious mice after drug injection; type: in vivo, mouse; conditions: for heart rate response to endothelin-1: 300 ng/kg
Method: (§1) EKG recordings. EKG recordings were obtained using a radiotelemetry apparatus (DSI). Transmitters were implanted and the mice recovered for 5 days prior to recordings. EKG traces were analyzed using Data Quest analysis software 2.1 (DSI). P wave duration, PR interval, RR interval, QRS interval and QT interval were all calculated according to established methods. The rate corrected QT interval (QTc) was calculated from the relationship QTc=QT/(RR)^1/2 Following a 15-hour fast, blood glucose levels were measured (OneTouch Ultra; Lifescan) before and up to 120 min after an intraperitoneal injection of either PBS, glucose (2 g/kg) or insulin (5 units/kg; Eli Lilly) (Ludwig et al, J. Clin. Invest. 107:379–386 (2001)).
To test ankyrin-B heterozygous mice for potential defects in Gαq signaling, ECG radiotransmitter implants were implanted in the abdomen of ankyrin-B (+/−) mice as well as wildtype littermate controls. These probes allow the recording of real time ECG and thus heart rate recordings in conscious, non-anethestized mice. 24 hour recordings of wildtype mice compared to heterozygote animals show overall bradycardia in the heterozygote (FIG. 9).

[2] = system: adult AnkB+/− and control ventricular cardiomyocytes; experiment: Action potential recordings in isolated adult ventricular cardiomyocytes with isoproterenol; type: cell-based, mouse; conditions: for extrasystoles in action potentials after acute isoproterenol: isoproterenol (1 μM); for myocytes with DADs and EADs: isoproterenol
Method: Patch clamp methods. AnkB+/− and +/+ animals (1–3 months of age) were sacrificed by IP injection of pentobarbital sodium (100 mg/kg). Single myocytes were isolated (Santana et al, J. Physiol. 503:21 (1997)). Axopatch-200A or -200B amplifier (Axon Instruments) was used to measure membrane currents (Santana et al, J. Physiol. 503:21(1997), Santana et al, Science 279:1027 (1998)). Patch pipette (1–3 MOhm) solution (mM): CsCl (130); NaCl (10); MgATP (5); Hepes (10), MgCl2 (1) PH 7.2 (with CsOH). Superfusion solution 1: (mM) NaCl (140), KCl (5) MgCl2 (0.5), CaCl2 (1.8), NaH2PO4 (0.33), glucose (5.5) and HEPES (5); pH 7.4 at 35–37° C. Solution 2 was same as solution 1 but with CsCl substituted for KCl. After conversion to whole cell, voltage clamp in solution (1), solution (2) was used to measure ICa. Test depolarizations followed four 50 ms depolarizations to 0 mV at 1 Hz. A 500 ms ramp-depolarization from […] to 40 mV was followed by a 50 ms period at 40 mV before test depolarizations.
AP recordings. Myocytes were superfused with Solution 1. β adrenergic stimulation of cells produced by the addition of 1 μM isoproterenol to solution 1. Pipette filling solution as above, except KCl was substituted for CsCl (pH 7.2 with KOH). Axopatch 200A was used in current clamp mode to record AP. Current injections triggered AP at constant rate (1 Hz, 5 Hz). All experiments were performed at 37° C.

IP3R = experiment: [3H]IP3 binding assay and Scatchard analysis, cardiac muscle microsomes; set-up: species or system mouse; conditions: for Kd: n=5
Method: IP3 Binding Experiments. Cardiac membranes were prepared and labeled with increasing concentrations (5–40 nM) of [^3H] IP3 (Amersham) essentially as described (Perez et al, J. Biol. Chem. 272:23961 1997)). Assays were performed in triplicate, and at each IP3 concentration, non-specific binding was assessed in the presence of 1 μM unlabeled IP3 (ICN).

AnkB+/− and +/+ mice = system: AnkB+/− and +/+ mice
Text: Sudden cardiac death in humans with the E1425G mutation occurred secondary to physical exertion and emotional stress (FIG. 28)3. An attempt was made to mimic these circumstances in mice with exercise followed by injection with epinephrine.

Na/K ATPase = experiment: [3H]ouabain binding to adult cardiac microsomes; set-up: species or system mouse
Text: Na/K ATPase, Na/Ca exchanger (NCX) and IP3R are candidate ankyrin-binding proteins based on biochemical data (Bennett et al, Physiol. Rev. 81:1353 (2001)) that are localized at T-tubules (Frank et al, in The Myocardium (ed. Langer, G A) 1–32 (Academic Press, San Diego, Calif., 1997)). Ankyrin-B co-immunoprecipitates with NCX1, α1 and α2 ATPase, and IP3R from extracts of heart tissue (FIG. 30B), but not with other cardiomyocyte proteins (including DHPR, SERCA2, and calsequestrin). Levels of IP3R (pan IP3R), α1 and α2 Na/K ATPase subunits, and NCX in isolated adult cardiomyocytes are reduced by 15–33% in AnkB+/− cardiomyocytes by immunoblots (FIG. 30C). Measurements of binding of [^3H] […] In contrast, by quantitative western blot analysis, protein levels of ER/SR components (SERCA2, calreticulin, calsequestrin), K+ channels or associated subunits (KCNQ1/KvLQT1, ERG1, MinK/IsK, Kir2.1/IRK1, Kir2.3/IRK3), RyR2, plasma membrane Ca^+2 channels (DHPR, PMCA2), and structural proteins (α-actinin, dystrophin) are unaffected (FIG. 30C).

[3] = system: (+/+) and AnkB (+/−) mice; experiment: Insulin-tolerance test, blood glucose; type: in vivo, mouse; conditions: 5 units/kg intraperitoneal, 120 min
Method: as §1

## CC(C)NCC(O)c1ccc(O)c(O)c1 (stereo not drawn) [isoproterenol]
[1]; wildtype and ankyrin-B (+/−) mice, 50 mg/kg
  heart rate response to isoproterenol: responsed equally
[2]; AnkB+/− cardiomyocytes
  extrasystoles in action potentials after acute isoproterenol: developed spontaneous extrasystoles at both 1 and 5 Hz
[2]; AnkB+/− myocytes, 1 and 5 Hz
  myocytes with DADs and EADs: 36%
[2]; control cells
  extrasystoles in action potentials after acute isoproterenol: did not
[2]; control myocytes
  myocytes with DADs and EADs: no control myocytes

## CNC[C@H](O)c1cccc(O)c1 [phenylephrine]
[1]; ankyrin-B (+/−) mice, 3 mg/kg
  heart rate response to phenylephrine: significant decreased heart rate sensitivity; also recorded: does not reach the same minimum levels as the wildtype
[1]; ankyrin-B heterozygous mice, propanolol injected prior to phenylephrine
  maximal decrease in heart rate after phenylephrine during beta blockade: ~50 % of the wildtype response
[1]; wildtype mice, 3 mg/kg intraperitoneal
  heart rate response to phenylephrine: rapid decrease in heart rate

## O=P(O)(O)O[C@@H]1[C@H](O)[C@H](O)[C@@H](OP(=O)(O)O)[C@H](OP(=O)(O)O)[C@H]1O [IP3, inositol 1,4,5-triphosphate]
IP3R; (+/+) cardiac muscle
  Bmax, IP3 binding capacity: 0.083 pmol/mg
  Kd: 24 nM
IP3R; AnkB (+/−) cardiac muscle
  Bmax, IP3 binding capacity: 0.056 pmol/mg
  Kd: 25 nM
IP3R; AnkB (+/−) vs wildtype heart
  reduction in IP3 binding capacity: 33%
IP3R; adult cardiac microsomes
  affinity for ligand, AnkB+/− vs +/+: unchanged

## endothelin-1 (CSCSSLMDKECVYFCHLDIIW; ends and bridges not checked; cysteine pairing not given here; UniProt P05305 53-73, looked up) [signals via a Gαq-coupled receptor]
[1]; ankyrin-B (+/−) mice
  heart rate response to endothelin-1: significantly reduced; also recorded: does not reach the same levels as the wildtype
[1]; wildtype animals
  heart rate response to endothelin-1: significant decrease in heart rate

## CNC[C@H](O)c1ccc(O)c(O)c1 [epinephrine]
AnkB+/− and +/+ mice; +/+ mice
  mice that became unresponsive or died: 0/6
AnkB+/− and +/+ mice; AnkB+/− mice
  mice that died following exercise combined with epinephrine: 8/14
AnkB+/− and +/+ mice; AnkB+/− mouse, exercise and epinephrine
  time to polymorphic ventricular arrhythmias after EPI: ~17 min

## C[C@@H]1O[C@@H](O[C@H]2C[C@@H](O)[C@]3(CO)[C@H]4[C@H](O)C[C@]5(C)[C@@H](C6=CC(=O)OC6)CC[C@]5(O)[C@@H]4CC[C@]3(O)C2)[C@H](O)[C@H](O)[C@H]1O [ouabain]
Na/K ATPase; AnkB+/− heart vs +/+
  reduction in [3H]ouabain binding capacity: 16%
Na/K ATPase; adult cardiac microsomes
  affinity for ligand, AnkB+/− vs +/+: unchanged

## insulin
[3]; (+/+) mice
  blood glucose after insulin injection: decline following the insulin injection and return to near normal levels by the end of the 120 min period
[3]; AnkB (+/−) mice
  blood glucose after insulin injection: significant reduction in blood glucose levels

## CC(C)NCC(O)COc1cccc2ccccc12 (stereo not drawn) [propanolol]
[1]; wildtype and ankyrin-B heterozygote mice
  heart rate response to propanolol: typical decreases in heart rate which were not significantly different
